Experimental data from patent publication US4550179A, “N-(1-Allyl-2-pyrrolidinyl-methyl) 2-methoxy-4-amino-5-methylsulfamoyl benzamide” (Societe d'Etudes Scientifiques et Industrielles de l'Ile-de …, priority 1980, dated 1985).

How the values were obtained:
noradrenalin = test: hypertensive response to noradrenalin, anaesthetised dog; type: in vivo; settings: for % reduction relative to control hypertension (R): noradrenalin
Source text: (§1) The effects of the benzamide on the cardiovascular system were studied in a dog anaesthetised with chloralose, with the following results:
Noradrenalin 0.5 R = 21%

adrenalin = test: hypertensive response to adrenalin, anaesthetised dog; type: in vivo; settings: for % reduction relative to control hypertension (R): adrenalin
Source text: (§2) The effects of the benzamide on the cardiovascular system were studied in a dog anaesthetised with chloralose, with the following results: […]

mouse [1] = test: analgesic action, pain caused by mechanical, chemical or heat stimulus; type: in vivo; settings: single dose
Source text: The analgesic action of the benzamide, in a single dose, is weak in respect of the pain caused in a mouse by a mechanical, chemical or heat stimulus.

[2] = anticonvulsive action (electric shock, pentetrazol, nicotine, auditory stimulus); type: in vivo; settings: nicotine or auditory stimulus
mice = test: duration of barbituric (pentobarbital) hypnosis; type: in vivo, mouse
Experimental: Adminis- Dose Time of hypnosis, mice treated
Product tration mg/kg Time of hypnosis, control mice
N.B. The barbiturate used is pentobarbital in a dose of 60 mg/kg given

isolated uterus = test: serotonin-induced contraction of isolated uterus; settings: isolated uterus of a rat, contraction produced by serotonin
Experimental: inhibited contraction of the isolated uterus of a rat, produced by serotonin. The contraction inhibiting dose 50 is of the order of 0.2 mg/l.

migraine [3] = test: comparative study with Pizotifene in migraine; type: in vivo; settings: 17 migraine patients, 150 mg per day orally
Experimental: (2) A comparative study with Pizotifene, an anti-histamine and antiserotonin compound which is also used in the basic treatment for migraine.
The study covered 17 patients suffering true attacks of migraine of regular frequency, which thus enabled the effectiveness of the treatment to be assessed from the number and intensity of attacks during a period of one month.
The benzamide according to the invention was applied orally in a dose of 150 mg per day, in three times. The Pizotifene was also administered orally, with the progressive dosage recommended for the product (0.73 mg×1 for 3 days-0.73 mg×2 for 3 days-0.73 mg×3 for 24 days).
The patients were distributed at random between the treatments.

mouse [4] = test: spontaneous motility of mouse, WINTER & FLATAKER method; type: in vivo
Source text: The researchers were looking for the effects of the benzamide on the central nervous system and particularly for any neuroleptic action.
(§3) Spontaneous motility of mouse:
(§4) inhibiting effect observed at
(§5) maximum dose administered
(§6) Adminis- WINTER & Activograph

[5] = system: hypotensive response to acetylcholine or to excitation of the vagus nerve; test: hypotensive response to acetylcholine or excitation of the vagus nerve, anaesthetised dog; type: in vivo
Source text: as §2

arterial pressure = arterial pressure in dog anaesthetised with chloralose; type: in vivo
Source text: as §1
Variations in arterial pressure
(mg/kg/I.V.) relative to initial pressure

cerebral arteries = test: cerebral haemodynamics of migraine patients (pulsatility of cerebral arteries); type: in vivo
Experimental: The first clinical pharmacological investigation consisted of exploring the cerebral haemodynamics of migraine patients by a non-invasive method, through recording the pulsatility of the cerebral arteries. […] Graphs were thus plotted after the benzamide according to the invention had been absorbed by migraine patients.
This is maintained under treatment with repeated doses (150 mg/day) given orally for 3 weeks.

carotid arteries = test: hypertensive response to blocking of carotid arteries, anaesthetised dog; type: in vivo; settings: for % reduction relative to control hypertension (R): blocking of carotid arteries for 30 seconds
Source text: as §2

nicotine = test: hypertensive response to nicotine (orthosympathetic component), anaesthetised dog; type: in vivo; settings: for % reduction of orthosympathetic component (R): nicotine
Source text: as §2

mouse [6] = test: spontaneous motility of mouse, Activograph method; type: in vivo; settings: read-out: inhibiting effect on spontaneous motility at maximum dose administered
Source text: as §3, §4, §5, §6

migraine [7] = test: open investigation in migraine out-patients; type: in vivo; settings: 150 mg per day orally in 3 doses
Experimental: (3) An open investigation covering 80 patients, who were followed in out-patient treatment with 150 mg of benzamide per day, given orally in 3 doses: […]

isolated ileum = test: anticholinergic action in vitro on isolated ileum; settings: isolated ileum of guinea pig
serotonin = test: gastric ulcer producing effect of serotonin in the rat; type: in vivo; settings: sc, subcutaneously, read-out: effective dose 50 (protection against gastric ulcer producing effect of serotonin)
migraine [8] = test: comparative crossed double blind study versus oxetorone in migraine; type: in vivo; settings: 63 migraine patients, 150 mg per day vs oxetorone 120 mg, 30 days
Source text: (1) A comparative study, by a crossed double blind method, the reference product being oxetorone, which is medically known, applied to migraine. The study covered 63 migraine patients, the two treatments being applied for 30 days with an adequate interruption between sequences.

histamine [9] = test: interaction with histamine, arterial pressure of anaesthetised dog; type: in vivo
Source text: (§7) Finally, researchers looked for interaction between the benzamide according to the invention and histamine, in the arterial pressure of an anaesthetised dog and the isolated ileum of a guinea pig.

histamine [10] = test: interaction with histamine, isolated ileum of guinea pig
Source text: as §7

## C=CCN1CCCC1CNC(=O)c1cc(S(=O)(=O)NC)c(N)cc1OC (stereo not drawn) [Benzamide according to the invention, N-(1-allyl-2-pyrrolidinyl-methyl)2-methoxy-4-amino-5-methylsulfamoyl benzamide]
noradrenalin; anaesthetised dog
  hypertensive responses caused by noradrenalin: reduces the hypertensive responses
noradrenalin; cumulative dose 0.5 mg/kg I.V.
  % reduction relative to control hypertension (R): 21%
noradrenalin; cumulative dose 1 mg/kg I.V.
  % reduction relative to control hypertension (R): 13%
noradrenalin; cumulative dose 2 mg/kg I.V.
  % reduction relative to control hypertension (R): 30%
noradrenalin; cumulative dose 4 mg/kg I.V.
  % reduction relative to control hypertension (R): 30%
noradrenalin; cumulative dose 8 mg/kg I.V.
  % reduction relative to control hypertension (R): 40%
noradrenalin; cumulative dose 16 mg/kg I.V.
  % reduction relative to control hypertension (R): 49%
noradrenalin; cumulative dose 32 mg/kg I.V.
  % reduction relative to control hypertension (R): 66%
adrenalin; cumulative dose 0.5 mg/kg I.V.
  % reduction relative to control hypertension (R): 5%
adrenalin; cumulative dose 1 mg/kg I.V.
  % reduction relative to control hypertension (R): 3%
adrenalin; cumulative dose 2 mg/kg I.V.
  % reduction relative to control hypertension (R): 4%
adrenalin; cumulative dose 4 mg/kg I.V.
  % reduction relative to control hypertension (R): 21%
adrenalin; cumulative dose 8 mg/kg I.V.
  % reduction relative to control hypertension (R): 40%
adrenalin; cumulative dose 16 mg/kg I.V.
  % reduction relative to control hypertension (R): 68%
adrenalin; cumulative dose 32 mg/kg I.V.
  % reduction relative to control hypertension (R): 84%
adrenalin; anaesthetised dog
  hypertensive responses caused by adrenalin: reduces the hypertensive responses
Mouse [1]
  analgesic action: weak
[2]
  anticonvulsive action: no anticonvulsive action
mice; I.P., 80 mg/kg, pentobarbital 60 mg/kg intraperitoneally
  Time of hypnosis, mice treated / Time of hypnosis, control mice: 1.6
mice; mouse, in vivo
  extension of the duration of barbituric hypnosis: does not extend the duration of barbituric hypnosis
Isolated uterus
  contraction inhibiting dose 50: ~0.2 mg/L
Migraine [3]
  effectiveness versus Pizotifene: more effective than the second reference compound
Mouse [4]; Mus musculus, ip, I.P., 80 mg/kg, WINTER & FLATAKER method, read-out: inhibiting effect on spontaneous motility at maximum dose administered
  inhibition at 80 mg/kg: 26%
Mouse [4]; Mus musculus, po, P.O., 300 mg/kg, WINTER & FLATAKER method, read-out: inhibiting effect on spontaneous motility at maximum dose administered
  inhibition at 300 mg/kg: 20%
Mouse [4]; mouse, even in high doses
  reduction of spontaneous motility: only very slightly reduces the spontaneous motility of the mouse
Mouse [4]; mouse, in vivo
  depressive action (central nervous system): very little depressive action
[5]
  hypotensive response to acetylcholine or to excitation of the vagus nerve: does not change the hypotensive response
Arterial pressure; cumulative dose 0.5 mg/kg I.V.
  Variations in arterial pressure relative to initial pressure: -21%
Arterial pressure; cumulative dose 1 mg/kg I.V.
  Variations in arterial pressure relative to initial pressure: -32%
Arterial pressure; cumulative dose 2 mg/kg I.V.
  Variations in arterial pressure relative to initial pressure: -36%
Arterial pressure; cumulative dose 4 mg/kg I.V.
  Variations in arterial pressure relative to initial pressure: -48%
Arterial pressure; cumulative dose 8 mg/kg I.V.
  Variations in arterial pressure relative to initial pressure: -54%
Arterial pressure; cumulative dose 16 mg/kg I.V.
  Variations in arterial pressure relative to initial pressure: -59%
Arterial pressure; cumulative dose 32 mg/kg I.V.
  Variations in arterial pressure relative to initial pressure: -58%
Arterial pressure; dog anaesthetised with chloralose
  arterial pressure: drop in arterial pressure proportional to the dose administered
Cerebral arteries; repeated doses 150 mg/day orally for 3 weeks
  maintenance of graph normalisation: maintained
Cerebral arteries; single 100 mg intramuscular injection
  graph of cerebral artery pulsatility: the graph moves towards normalisation in 2 hours
Carotid arteries; anaesthetised dog
  hypertensive responses caused by blocking the carotid arteries: reduces the hypertensive responses
Carotid arteries; cumulative dose 0.5 mg/kg I.V.
  % reduction relative to control hypertension (R): 0%
Carotid arteries; cumulative dose 1 mg/kg I.V.
  % reduction relative to control hypertension (R): 30%
Carotid arteries; cumulative dose 2 mg/kg I.V.
  % reduction relative to control hypertension (R): 43%
Carotid arteries; cumulative dose 4 mg/kg I.V.
  % reduction relative to control hypertension (R): 48%
Carotid arteries; cumulative dose 8 mg/kg I.V.
  % reduction relative to control hypertension (R): 86%
Carotid arteries; cumulative dose 16 mg/kg I.V.
  % reduction relative to control hypertension (R): 90%
Carotid arteries; cumulative dose 32 mg/kg I.V.
  % reduction relative to control hypertension (R): 100%
nicotine; anaesthetised dog
  hypertensive responses caused by small doses of nicotine: reduces the hypertensive responses
nicotine; cumulative dose 0.5 mg/kg I.V.
  % reduction of orthosympathetic component (R): 0%
nicotine; cumulative dose 1 mg/kg I.V.
  % reduction of orthosympathetic component (R): 0%
nicotine; cumulative dose 2 mg/kg I.V.
  % reduction of orthosympathetic component (R): 0%
nicotine; cumulative dose 4 mg/kg I.V.
  % reduction of orthosympathetic component (R): 0%
nicotine; cumulative dose 8 mg/kg I.V.
  % reduction of orthosympathetic component (R): 0%
nicotine; cumulative dose 16 mg/kg I.V.
  % reduction of orthosympathetic component (R): 49%
nicotine; cumulative dose 32 mg/kg I.V.
  % reduction of orthosympathetic component (R): 79%
Mouse [6]; ip, I.P., 80 mg/kg
  inhibition at 80 mg/kg: 22%
Mouse [6]; po, P.O., 300 mg/kg
  inhibition at 300 mg/kg: 25%
Migraine [7]
  remission in particularly severe cases of "accompanied" migraines: the remission transformed the social life of the patient
Migraine [7]; 80 patients
  General tolerance of the treatment: very satisfactory
  success: 79%
Isolated ileum
  anticholinergic action: no anticholinergic action
serotonin
  ED50: ~3 mg/kg
Migraine [8]
  therapeutic effectiveness and tolerance versus oxetorone: statistically superior to oxetorone
Histamine [9]
  anti-histamine properties: No anti-histamine properties were revealed
Histamine [10]
  anti-histamine properties: No anti-histamine properties were revealed
